# From publication PMC4212090, “The comprehensive analysis of DEG/ENaC subunits in Hydra reveals a large variety of peptide-gated channels, potentially involved in neuromuscular transmission” (BMC Biology, 2014)
# Read-outs that look alike come from different tables or passages of the source.
# Columns and labels:
# [1] = target: HyNaC2/10/7 (Hydra magnipapillata)
# [2] = target: HyNaC2/11/5 (Hydra magnipapillata)
# [3] = target: HyNaC2/3/5 (Hydra magnipapillata)
# [4] = target: HyNaC2/3/6 (Hydra magnipapillata)
# [5] = target: HyNaC2/3/7 (Hydra magnipapillata)
# [6] = target: HyNaC2/4/6 (Hydra magnipapillata)
# [7] = target: HyNaC2/9/7 (Hydra magnipapillata)
# HyNaC2/3/5 [8] = target: T1, HyNaC2/3/5 (Hydra vulgaris (Hydra magnipapillata), UniProt A8DZR6+A8DZR7+D3UD58); test: Activation of HyNaC2/3/5 expressed in Xenopus oocytes by Hydra-RFamides (TEVC); type: cell-based; conditions: EGTA-injected oocytes
# T1 sequence (A8DZR6 entry or part of it): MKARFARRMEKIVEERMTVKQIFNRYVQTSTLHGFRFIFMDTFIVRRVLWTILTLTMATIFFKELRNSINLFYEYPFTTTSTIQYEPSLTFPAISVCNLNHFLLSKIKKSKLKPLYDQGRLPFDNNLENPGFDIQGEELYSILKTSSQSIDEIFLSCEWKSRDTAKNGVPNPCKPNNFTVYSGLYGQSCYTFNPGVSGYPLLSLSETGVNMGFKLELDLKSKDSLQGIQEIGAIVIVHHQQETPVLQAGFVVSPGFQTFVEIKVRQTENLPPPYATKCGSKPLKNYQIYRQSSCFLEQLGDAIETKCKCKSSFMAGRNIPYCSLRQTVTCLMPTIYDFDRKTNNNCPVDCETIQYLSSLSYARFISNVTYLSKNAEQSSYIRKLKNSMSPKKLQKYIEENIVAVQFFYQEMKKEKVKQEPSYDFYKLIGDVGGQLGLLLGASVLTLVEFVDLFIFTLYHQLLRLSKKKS
# T1 sequence (D3UD58 entry or part of it): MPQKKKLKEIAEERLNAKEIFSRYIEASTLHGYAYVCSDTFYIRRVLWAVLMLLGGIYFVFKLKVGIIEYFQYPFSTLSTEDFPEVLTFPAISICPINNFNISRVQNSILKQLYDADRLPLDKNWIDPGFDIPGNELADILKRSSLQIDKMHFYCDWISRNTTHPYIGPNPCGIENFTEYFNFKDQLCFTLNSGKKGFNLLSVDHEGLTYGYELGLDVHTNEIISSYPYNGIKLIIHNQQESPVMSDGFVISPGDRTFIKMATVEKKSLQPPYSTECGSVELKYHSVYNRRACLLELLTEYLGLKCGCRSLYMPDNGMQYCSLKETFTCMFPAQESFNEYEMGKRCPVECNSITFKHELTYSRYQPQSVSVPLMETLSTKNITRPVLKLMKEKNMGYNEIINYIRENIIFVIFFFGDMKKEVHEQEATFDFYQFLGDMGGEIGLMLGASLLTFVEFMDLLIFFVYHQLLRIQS
# T1 sequence (A8DZR7 entry or part of it): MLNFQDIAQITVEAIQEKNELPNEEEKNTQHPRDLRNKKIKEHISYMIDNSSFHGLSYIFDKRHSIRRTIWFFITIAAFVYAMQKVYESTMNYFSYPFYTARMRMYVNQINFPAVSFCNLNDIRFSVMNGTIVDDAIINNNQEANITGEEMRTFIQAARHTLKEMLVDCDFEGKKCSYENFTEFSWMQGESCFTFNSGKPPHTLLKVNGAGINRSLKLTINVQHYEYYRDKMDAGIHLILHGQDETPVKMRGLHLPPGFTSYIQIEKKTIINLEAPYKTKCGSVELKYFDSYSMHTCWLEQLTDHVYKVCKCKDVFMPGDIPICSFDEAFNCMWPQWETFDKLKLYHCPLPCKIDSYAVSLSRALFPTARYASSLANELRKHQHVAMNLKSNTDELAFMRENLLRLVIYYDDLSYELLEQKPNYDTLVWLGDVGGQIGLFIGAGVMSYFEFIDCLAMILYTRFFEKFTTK
# Method: (§1) To study the biophysical properties of the new HyNaCs, cRNA of HyNaCs was synthesized in vitro (mMessage mMachine kit, Ambion, Austin, Texas, USA) and injected into Xenopus laevis oocytes of stage V and VI. After injection, oocytes were incubated for one to two days at 19°C in oocyte Ringer’s solution 2 (OR-2), which contained (in mM): 82.5 NaCl, 2.5 KCl, 1.0 Na2HPO4, 1.0 MgCl2, 1.0 CaCl2, 5.0 HEPES, 0.5 g/l PVP, 1,000 U/l penicillin and 10 mg/l streptomycin, NaOH was used to adjust pH to 7.3. Whole cell currents were recorded from defolliculated oocytes by two-electrode voltage-clamp (TEVC) using the amplifier TurboTec 03X (npi electronic GmbH, Tamm, Germany). Standard bath solution (in mM: 140 NaCl, 10 HEPES, 1.8 CaCl2 and 1.0 MgCl2. NaOH was used to adjust pH to 7.4.) was exchanged by a pump driven system combined with the oocyte testing carousel (OTC), which was controlled by the interface OTC-20 [53]. To control the OTC-20 and to record the data to the hard drive, the software CellWorks (version 5.1.1; npi electronic GmbH, Tamm, Germany) was used. Data were sampled at 0.1 to 1 kHz and filtered at 20 Hz. HyNaCs are permeable for Ca^2+, activating an endogenous CaCC [40]. Therefore, unless otherwise indicated, oocytes were injected with 50 nl of 20 mM EGTA 30 to 180 minutes before measurements. Reversal potentials and Ca^2+ permeabilities of HyNaCs were studied as described previously.
# (§2) EC50 values for Hydra-RFamides I and II as well as IC50 values for diminazene were determined by fits to the Hill equation using IGOR Pro (version 6.06, WaveMetrics, Inc.). Reversal potentials were defined as the first recorded data point, where currents reversed signs from negative to positive. For I/V relationships, voltage ramps in the absence of the agonist were used to subtract background conductances. Results are reported as mean ± standard error.
# HyNaC2/11/5 = HyNaC2/11/5 (Hydra vulgaris (Hydra magnipapillata), UniProt A0A0A0MP55+A8DZR6+D3UD58); test: Activation of HyNaC2/11/5 expressed in Xenopus oocytes by Hydra-RFamides (TEVC); type: cell-based
# Sequence of HyNaC2/11/5 (A0A0A0MP55 entry or part of it): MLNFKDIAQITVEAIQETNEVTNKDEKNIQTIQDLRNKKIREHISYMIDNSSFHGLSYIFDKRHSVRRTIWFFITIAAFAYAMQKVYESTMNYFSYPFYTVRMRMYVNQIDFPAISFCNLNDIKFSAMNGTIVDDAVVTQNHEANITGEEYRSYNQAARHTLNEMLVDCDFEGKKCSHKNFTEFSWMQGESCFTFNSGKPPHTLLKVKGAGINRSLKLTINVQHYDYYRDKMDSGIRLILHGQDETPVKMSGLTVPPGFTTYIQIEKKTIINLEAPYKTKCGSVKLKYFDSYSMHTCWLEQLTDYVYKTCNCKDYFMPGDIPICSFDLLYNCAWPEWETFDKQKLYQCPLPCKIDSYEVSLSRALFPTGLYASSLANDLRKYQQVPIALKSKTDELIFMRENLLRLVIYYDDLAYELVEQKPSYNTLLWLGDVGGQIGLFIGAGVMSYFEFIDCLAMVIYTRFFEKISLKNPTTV
# Sequence of HyNaC2/11/5 (A8DZR6 entry or part of it): as the sequence (A8DZR6 entry or part of it) above
# Sequence of HyNaC2/11/5 (D3UD58 entry or part of it): as the sequence (D3UD58 entry or part of it) above
# Method: as §1, §2
# HyNaC2/3/6 = HyNaC2/3/6 (Hydra vulgaris (Hydra magnipapillata), UniProt A0A0A0MP54+A8DZR6+A8DZR7); test: Activation of HyNaC2/3/6 expressed in Xenopus oocytes by Hydra-RFamides (TEVC); type: cell-based; conditions: EGTA-injected oocytes
# Method: as §1, §2
# HyNaC2/4/6 = HyNaC2/4/6 (Hydra vulgaris (Hydra magnipapillata), UniProt A0A0A0MP54+A8DZR6+A8DZR8); test: Activation of HyNaC2/4/6 expressed in Xenopus oocytes by Hydra-RFamides (TEVC); type: cell-based; conditions: EGTA-injected oocytes
# Method: as §1, §2
# HyNaC2/3/7 = HyNaC2/3/7 (Hydra vulgaris (Hydra magnipapillata), UniProt A0A0A0MP73+A8DZR6+A8DZR7); test: Activation of HyNaC2/3/7 expressed in Xenopus oocytes by Hydra-RFamides (TEVC); type: cell-based; conditions: EGTA-injected oocytes
# Method: as §1, §2
# HyNaC2/9/7 = HyNaC2/9/7 (Hydra vulgaris (Hydra magnipapillata), UniProt A0A0A0MP48+A0A0A0MP73+A8DZR6); test: Activation of HyNaC2/9/7 expressed in Xenopus oocytes by Hydra-RFamides (TEVC); type: cell-based; conditions: EGTA-injected oocytes
# Sequence of HyNaC2/9/7 (A0A0A0MP48 entry or part of it): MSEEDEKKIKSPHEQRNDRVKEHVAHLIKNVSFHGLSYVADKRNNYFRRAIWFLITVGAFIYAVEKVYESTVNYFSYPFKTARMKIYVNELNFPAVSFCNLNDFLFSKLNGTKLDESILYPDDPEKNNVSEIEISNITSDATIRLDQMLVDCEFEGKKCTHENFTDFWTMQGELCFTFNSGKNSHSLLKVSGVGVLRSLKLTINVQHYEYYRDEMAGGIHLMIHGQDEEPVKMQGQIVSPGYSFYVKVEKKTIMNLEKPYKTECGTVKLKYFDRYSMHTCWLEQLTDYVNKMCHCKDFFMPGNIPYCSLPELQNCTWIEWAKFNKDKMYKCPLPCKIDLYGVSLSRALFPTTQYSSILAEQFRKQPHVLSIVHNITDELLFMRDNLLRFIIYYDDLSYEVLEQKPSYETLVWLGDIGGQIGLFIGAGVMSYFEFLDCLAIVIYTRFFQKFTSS
# Sequence of HyNaC2/9/7 (A8DZR6 entry or part of it): as the sequence (A8DZR6 entry or part of it) above
# Sequence of HyNaC2/9/7 (A0A0A0MP73 entry or part of it): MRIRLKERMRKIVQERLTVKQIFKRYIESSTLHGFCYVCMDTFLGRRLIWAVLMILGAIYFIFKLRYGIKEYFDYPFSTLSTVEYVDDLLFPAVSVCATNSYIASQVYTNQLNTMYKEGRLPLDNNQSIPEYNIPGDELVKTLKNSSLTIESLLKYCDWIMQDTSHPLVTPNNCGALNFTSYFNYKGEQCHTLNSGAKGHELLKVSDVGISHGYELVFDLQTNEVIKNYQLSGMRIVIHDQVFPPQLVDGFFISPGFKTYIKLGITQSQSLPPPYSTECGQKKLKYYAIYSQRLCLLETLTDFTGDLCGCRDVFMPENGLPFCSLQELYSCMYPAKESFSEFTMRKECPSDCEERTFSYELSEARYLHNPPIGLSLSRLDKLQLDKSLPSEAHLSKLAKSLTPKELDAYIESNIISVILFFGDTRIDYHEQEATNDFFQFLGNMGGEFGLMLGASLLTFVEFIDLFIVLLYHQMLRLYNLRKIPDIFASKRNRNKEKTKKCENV
# Method: as §1, §2
# HyNaC2/10/7 = HyNaC2/10/7 (Hydra vulgaris (Hydra magnipapillata), UniProt A0A0A0MP61+A0A0A0MP73+A8DZR6); test: Activation of HyNaC2/10/7 expressed in Xenopus oocytes by Hydra-RFamides (TEVC); type: cell-based; conditions: EGTA-injected oocytes
# Method: as §1, §2
# [9] = test system: functional HyNaC heterotrimer; test: Screen of functional HyNaC heterotrimers in Xenopus oocytes for activation by Hydra-RFamides; type: cell-based, Hydra magnipapillata; conditions: data not shown
# Method: We tested the function of the new HyNaCs by co-expression of different HyNaC subunit combinations in Xenopus oocytes. We screened for functional subunit combinations by application of 5 μM Hydra-RFamide I, a potent agonist of HyNaC2/3/5 [4]. When we expressed an individual HyNaC subunit we could never elicit currents. […] When HyNaC2 was part of the injected cRNA pool, however, Hydra-RFamide I elicited currents. Simultaneous expression of HyNaC2 with a single other HyNaC resulted only in a functional channel when we co-expressed HyNaC2 and HyNaC3; it was already known that HyNaC2 and HyNaC3 form a low-affinity peptide-gated channel.
# Dashed line represents the zero current level. Amino acid sequences of Hydra-RFamides I to V are shown at the bottom. HyNaC, Hydra Na^+ channel.
# Since Hydra-RFamide II had been shown previously to activate HyNaC2/3/5 [4], we tested Hydra-RFamides II to V for channel activation.
# as §1
# HyNaC2/9/5 = test: Activation of HyNaC2/9/5 in Xenopus oocytes by Hydra-RFamides; type: cell-based, Hydra magnipapillata; conditions: channel opened by lowering extracellular Ca2+
# Method: The contribution of the distantly related HyNaC12 to peptide-gated channels was assessed by co-expression with HyNaC2 and one or several other HyNaCs (HyNaC3 to HyNaC11). In addition, HyNaC12 was co-expressed with pools of different HyNaCs without HyNaC2. […] In fact, all HyNaCs that were activated by Hydra-RFamide I were opened by lowering the extracellular Ca^2+ concentration ([Ca^2+]e) to 10 nM (Figure 4). […] Some DEG/ENaCs are constitutively opened by an amino acid substitution at the so-called DEG-position. To further investigate whether HyNaC12 forms a functional homomeric channel, we substituted a glycine at the DEG-position by threonine (G436T), which has a large side chain. This substitution did, however, not constitutively open HyNaC12 (data not shown). This applies also for the co-expression of HyNaC12-G436T together with pools of different wild-type HyNaC subunits, leaving the function of HyNaC12 unknown.
# To study the biophysical properties of the new HyNaCs, cRNA of HyNaCs was synthesized in vitro (mMessage mMachine kit, Ambion, Austin, Texas, USA) and injected into Xenopus laevis oocytes of stage V and VI. […] Whole cell currents were recorded from defolliculated oocytes by two-electrode voltage-clamp (TEVC) using the amplifier TurboTec 03X (npi electronic GmbH, Tamm, Germany). […]
# HyNaC2/3/5 [10] = target: T1, HyNaC2/3/5; design: method as in PMID 20159980; conditions: ref [4], cited from earlier work
substance,measurement,setting,value
Hydra-RFamide I (peptide),"EC50 of current activation by Hydra-RFamide I (two-electrode voltage clamp, Xenopus oocytes injected with EGTA); saturation not reached",[1],> 30000 nM
same,"EC50 of current activation by Hydra-RFamide I (two-electrode voltage clamp, Xenopus oocytes injected with EGTA)",[2],13800 nM
same,"EC50 of current activation by Hydra-RFamide I (two-electrode voltage clamp, Xenopus oocytes injected with EGTA)",[3],3480 nM
same,"EC50 of current activation by Hydra-RFamide I (two-electrode voltage clamp, Xenopus oocytes injected with EGTA)",[4],290 nM
same,"EC50 of current activation by Hydra-RFamide I (two-electrode voltage clamp, Xenopus oocytes injected with EGTA)",[5],190 nM
same,"EC50 of current activation by Hydra-RFamide I (two-electrode voltage clamp, Xenopus oocytes injected with EGTA)",[6],700 nM
same,"EC50 of current activation by Hydra-RFamide I (two-electrode voltage clamp, Xenopus oocytes injected with EGTA)",[7],40 nM
Hydra-RFamide II,current amplitude at highest agonist concentration (Hydra-RFamide II),HyNaC2/3/5 [8],5.3 ± 1.0 μA
same,EC50,HyNaC2/3/5 [8]; read-out: EC50 (apparent affinity) for Hydra-RFamide II,1610 ± 270 nM
same,apparent affinity for Hydra-RFamide II relative to Hydra-RFamide I,HyNaC2/11/5; 0.95 μM compared with 13.8 μM,about 15 fold
same,current amplitude at highest agonist concentration (Hydra-RFamide II),HyNaC2/11/5; EGTA-injected oocytes,2.2 ± 0.4 μA
same,EC50,"HyNaC2/11/5; EGTA-injected oocytes, read-out: EC50 for Hydra-RFamide II",950 ± 160 nM
same,current amplitude at highest agonist concentration (Hydra-RFamide II),HyNaC2/3/6,9.2 ± 1.7 μA
same,current amplitude at highest agonist concentration (Hydra-RFamide II),HyNaC2/4/6,4.7 ± 0.8 μA
same,current amplitude at highest agonist concentration (Hydra-RFamide II),HyNaC2/3/7,11.8 ± 4.0 μA
same,current amplitude at highest agonist concentration (Hydra-RFamide II),HyNaC2/9/7,3.6 ± 1.3 μA
same,EC50,HyNaC2/9/7; read-out: EC50 for Hydra-RFamide II,40 ± 10 nM
same,current amplitude at highest agonist concentration (Hydra-RFamide II),HyNaC2/10/7,1.1 ± 0.4 μA
same,activation of channels that were activated by Hydra-RFamide I,[9],also activated
same,activation of HyNaC2/9/5,HyNaC2/9/5,not activated
same,EC50,"HyNaC2/3/5 [10]; oocytes not injected with EGTA, read-out: EC50 (apparent affinity) for Hydra-RFamide II",340 ± 80 nM
same,apparent affinity for Hydra-RFamide II relative to Hydra-RFamide I,HyNaC2/3/5 [10],ten times higher
